Results on one molecule are retold here after article PMC12505902, “Inhibitors of trehalose-6-phosphate synthase activity in fungal pathogens compromise thermal tolerance pathways” (mBio, 2025).

Structures are written as SMILES. Read-outs that look alike come from different tables or passages of the source. A value given as a limit tells only on which side of the number the result lay.

Common to all, as to assay type: cell-based
The subject of assay [1] is C. albicans (SC5314). The experiment in a line: MIC dose-response assay in YPD. As to the method:
We tested the effects of 4456dh on live cells by determining the minimal inhibitory concentration causing 80% growth reduction (MIC80). […] The MIC80 increased at 30°C to greater than 13 mM (Fig. S7A).
Fig 4 4456dh inhibits the growth of Candida and Cryptococcus species. […] 4456dh was administered at the concentrations indicated. Cultures were grown in YPD at the listed temperatures for 48 hours for Candida species and 72 hours for Cryptococcus species. Experimental temperatures reflect the temperatures at which the fungi experience heat stress. Left: relative growth of treated samples was calculated by averaging technical triplicates and normalizing the OD600 of each treated well to the average OD600 of the untreated WT controls, after the absorbance due to the compound was subtracted. The MIC80 values, calculated based on the OD600 values, are indicated in the white text on each heat map. Right: representative spot assays show the ability of cells to grow after exposure to 4456dh and indicate fungicidal activity of 4456dh. […]
102 determined by identifying the inflection point of the derivative data.
103 Tps1 Enzyme Activity Assay
104 The catalytic activity of C. albicans Tps1 and C. neoformans Tps1 was measured via a continuous
105 enzyme- coupled assay as previously reported ( 4) . […]
(§1) 110 bottomed 96-well microtiter plates and the decrease in absorbance at 340 nm during the initial
(§2) 111 reaction rate was recorded using a plate reader (Tecan). The decrease in absorbance was
(§3) 112 analyzed for the first 200s of the kinetic reaction. […]
(§4) 116 the overnight cultures was quantified by measuring the OD600 and corrected for the background
(§5) 117 absorbance of the medium. Antifungal potency for 4456dh was assessed by minimum inhibitory […]
(§6) 124 technical replicates. Growth, as determined by a reading of absorbance at 600 nm, was
(§7) 125 normalized to untreated controls and was corrected for the absorbance of 4456dh in the YPD […]
129 overnight cultures was quantified by measuring the OD600 and corrected for the background
130 absorbance of the medium. Antifungal potency for 4456dh was assessed by minimum inhibitory […]

Assay [2] has as its system C. auris (B11220). Put plainly: MIC dose-response assay in YPD. The conditions noted are these: Candidozyma auris. How it is done:
We tested the effects of 4456dh on live cells by determining the minimal inhibitory concentration causing 80% growth reduction (MIC80). Wild-type (WT) C. albicans and C. auris cells were incubated with 4456dh in yeast-peptone-dextrose (YPD) medium at 42°C and 39°C, respectively (Fig. 4A). […] 4456dh inhibited the growth of C. auris with an MIC80 of 7 mM at 39°C (Fig. 4A). The MIC80 increased at 30°C to greater than 13 mM (Fig. S7A).
Fig 4 4456dh inhibits the growth of Candida and Cryptococcus species. Two-fold dose response assays were performed against (A) C. albicans at 42°C and C. auris at 39°C, (B) C. glabrata at 42°C, and (C) C. neoformans, C. deneoformans, and C. gattii at 37°C. 4456dh was administered at the concentrations indicated. Cultures were grown in YPD at the listed temperatures for 48 hours for Candida species and 72 hours for Cryptococcus species. Experimental temperatures reflect the temperatures at which the fungi experience heat stress. Left: relative growth of treated samples was calculated by averaging technical triplicates and normalizing the OD600 of each treated well to the average OD600 of the untreated WT controls, after the absorbance due to the compound was subtracted. The MIC80 values, calculated based on the OD600 values, are indicated in the white text on each heat map. […]
102 determined by identifying the inflection point of the derivative data. […]
104 The catalytic activity of C. albicans Tps1 and C. neoformans Tps1 was measured via a continuous […]
as §1, §2, §3, §4, §5, §6, §7

Assay [3] deals with C. albicans WT strain SC5314. Put plainly: C. albicans filamentation assay (serum-induced). The conditions noted are these: YPD plus 10% fetal bovine serum, 37°C, 2 hours; sub-MIC concentration (5 µM as printed).

As usually defined, the MIC80 is the lowest concentration that inhibits either 80% of growth or 80% of the strains tested, depending on the study. For the molecule `Cn1cc(-c2csc(NC(=O)Cc3ccccn3)n2)cn1` [Compound 4456dh], the MIC80 result in assay [1] (30°C, YPD) is “no MIC was detected”; in assay [1] (Candida albicans, SC5314, 42°C, YPD, 48 hours, read-out: MIC80) it was 13 mM; in assay [1] (Candida albicans, SC5314, Supplemental Table 5, This publication, read-out: MIC80), 5160 µg/mL; in assay [2] (30°C, YPD), > 13 mM; in assay [2] (39°C, YPD, 48 hours), 7 mM; in assay [2] (Supplemental Table 5, This publication), 2780 µg/mL. In assay [3], the filamentation entry is “complete inhibition of filamentation”.
